In US20240132464A1, “HETEROCYCLIC COMPOUNDS AS E3 LIGASE INHIBITORS” (Accutar Biotechnology Inc., priority 2022, published 2024):

Target: T1, GID4 (Uniprot ID: Q81VV7, residues 124-289) (Homo sapiens, UniProt Q8IVV7)
T1 construct: GID4 (Uniprot ID: Q81VV7, residues 124-289)
T1 sequence (Q8IVV7 124-289): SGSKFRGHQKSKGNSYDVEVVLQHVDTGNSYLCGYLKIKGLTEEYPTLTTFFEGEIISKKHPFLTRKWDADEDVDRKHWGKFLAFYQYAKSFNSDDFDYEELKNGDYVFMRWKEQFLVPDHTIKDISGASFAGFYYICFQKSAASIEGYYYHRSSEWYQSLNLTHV
Assay: GID4 competitive binding assay (AlphaScreen, GID4/degron peptide PGLW)
Settings: 24 nM GID4, 48 nM biotinylated degron peptide PGLW, 4° C., read-out: IC50 (Inhibition of GID4/Degron binding by test compounds)
Procedure, shortened: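 Displacement of biotin-tagged degron tetrapeptide PGLW (48 nM) from C-terminally 6His-tagged GID4 124-289 (24 nM) read by AlphaScreen proximity signal. Compound incubation 2 h, then beads 1 h, all at 4 °C, pH 7.5, 2% DMSO final; background-corrected inhibition fitted with variable slope for IC50.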

| Structure (SMILES) | IC50 |
| --- | --- |
| Nc1nc(C2CCC2)cc(N2CCCC(c3ccn[nH]3)C2)n1 (stereo not drawn) [Compound 212, 4-(3-(1H-pyrazol-5-yl)piperidin-1-yl)-6-cyclobutylpyrimidin-2-amine] | > 5 µM |
| CC(C)c1cc(N2CCCC(n3cnc4ccccc43)C2)nc(N)n1 (stereo not drawn) [Compound 256, 4-(3-(1H-benzo[d]imidazol-1-yl)piperidin-1-yl)-6-isopropylpyrimidin-2-amine] | < 0.5 µM |
| Cc1c(-c2ccc(Br)c(C3CN(c4cc(C(C)C)nc(N)n4)CCN3)c2)cnn1C (single isomer, unassigned) [Compound 7, R or S-4-(3-(2-bromo-5-(1,5-dimethyl-1H-pyrazol-4-yl)phenyl)piperazin-1-yl)-6-isopropylpyrimidin-2-amine] | 0.5 to 5 µM |
| Nc1nc2c(c(N3CCCC(c4ccn[nH]4)C3)n1)CCCN2 (stereo not drawn) [Compound 187, 4-(3-(1H-pyrazol-5-yl)piperidin-1-yl)-5,6,7,8-tetrahydropyrido[2,3-d]pyrimidin-2-amine] | 0.5 to 5 µM |
| Nc1nc(N2CCN[C@@H](c3ccccc3Br)C2)c2[nH]ccc2n1 (racemic) [Compound 43, (S/R)-4-(3-(2-bromophenyl)piperazin-1-yl)-5H-pyrrolo[3,2-d]pyrimidin-2-amine] | 0.5 to 5 µM |
| CN1CCN(c2ccc(Br)c(C3CN(c4cc(N)nc(N)n4)CCN3)c2)CC1 (single isomer, unassigned) [Compound 50, R or S 6-(3-(2-bromo-5-(4-methylpiperazin-1-yl)phenyl)piperazin-1-yl)pyrimidine-2,4-diamine] | < 0.5 µM |
| c1ccn2c(C3CCCN(c4ccnc5[nH]ccc45)C3)cnc2c1 (stereo not drawn) [Compound 91, 3-(1-(1H-pyrrolo[2,3-b]pyridin-4-yl)piperidin-3-yl)imidazo[1,2-a]pyridine] | < 0.5 µM |
| c1ccn2c(C3CCCN(c4ncnc5c4CCCN5)C3)cnc2c1 (stereo not drawn) [Compound 58, 4-(3-(imidazo[1,2-a]pyridin-3-yl)piperidin-1-yl)-5,6,7,8-tetrahydropyrido[2,3-d]pyrimidine] | 0.5 to 5 µM |
| CC(C)c1cc(N2CCCC(c3ccn[nH]3)C2)nc(N)n1 (stereo not drawn) [Compound 210, 4-(3-(1H-pyrazol-5-yl)piperidin-1-yl)-6-isopropylpyrimidin-2-amine] | > 5 µM |
| Nc1nc(N)c(Cl)c(N2CCNC(c3ccccc3Br)C2)n1 (stereo not drawn) [Compound 68, 6-(3-(2-bromophenyl)piperazin-1-yl)-5-chloropyrimidine-2,4-diamine] | > 5 µM |
| CC(C)c1cc(N2CCNC(c3cc(F)c(F)cc3Br)C2)nc(N)n1 (stereo not drawn) [Compound 170, 4-(3-(2-bromo-4,5-difluorophenyl)piperazin-1-yl)-6-isopropylpyrimidin-2-amine] | 0.5 to 5 µM |
| Nc1nc(N2CCNC(c3cnc4ccccn34)C2)c2[nH]ccc2n1 (stereo not drawn) [Compound 55, 4-(3-(imidazo[1,2-a]pyridin-3-yl)piperazin-1-yl)-5H-pyrrolo[3,2-d]pyrimidin-2-amine] | 0.5 to 5 µM |
| CNc1cc(N2CCC[C@H](c3ccccc3Br)C2)nc(NC)n1 (stereo in doubt) [Compound 83, (R/S)-6-(3-(2-bromophenyl)piperidin-1-yl)-N2,N4-dimethylpyrimidine-2,4-diamine] | 0.5 to 5 µM |

The remaining lines, values ahead:

| IC50 | Structure (SMILES) |
| --- | --- |
| > 5 µM | CN(C)CCCNC(=O)c1cccc(-c2ccc3ccnc(N)c3n2)c1 [Compound 340, 3-(8-amino-1,7-naphthyridin-2-yl)-N-(3-(dimethylamino)propyl)benzamide] |
| > 5 µM | CNc1cc(N2CCCC(n3ncc4ccccc43)C2)nc(N)n1 (stereo not drawn) [Compound 254, 6-(3-(1H-indazol-1-yl)piperidin-1-yl)-N4-methylpyrimidine-2,4-diamine] |
| < 0.5 µM | CN(C)CCCNC(=O)c1csc(-c2cc(O)c3ncccc3c2)c1 [Compound 281, N-(3-(dimethylamino)propyl)-5-(8-hydroxyquinolin-6-yl)thiophene-3-carboxamide] |
| < 0.5 µM | Nc1nccc2ccc(-c3ccc4[nH]nc(C(=O)NC[C@H]5CC[C@@H](O)CC5)c4c3)cc12 [Compound 333, 5-(1-aminoisoquinolin-7-yl)-N-((cis-4-hydroxycyclohexyl)methyl)-1H-indazole-3-carboxamide] |
| > 5 µM | CN(C)CCNC(=O)c1c[nH]c2ncc(-c3ccc4ccnc(N)c4c3)cc12 [Compound 8, 5-(1-aminoisoquinolin-7-yl)-N-(2-(dimethylamino)ethyl)-1H-pyrrolo[2,3-b]pyridine-3-carboxamide] |
| < 0.5 µM | CN(C)CCCNC(=O)c1cc(-c2cc(O)c3ncccc3c2)c[nH]1 [Compound 269, N-(3-(dimethylamino)propyl)-4-(8-hydroxyquinolin-6-yl)-1H-pyrrole-2-carboxamide] |
| 0.5 to 5 µM | CC(C)c1cc(N2CCC(c3cnc4ccccn34)C2)nc(N)n1 (stereo not drawn) [Compound 253, 4-(3-(imidazo[1,2-a]pyridin-3-yl)pyrrolidin-1-yl)-6-isopropylpyrimidin-2-amine] |
| 0.5 to 5 µM | CC(C)c1cc(-c2cc(-c3ccnn3C)c3ccnc(-c4cc[nH]n4)c3n2)cc(N)n1 [Compound 366, 6-isopropyl-4-(4-(1-methyl-1H-pyrazol-5-yl)-8-(1H-pyrazol-3-yl)-1,7-naphthyridin-2-yl)pyridin-2-amine] |
| 0.5 to 5 µM | Nc1nc(NC2CC2)cc(N2CCCC(c3cnc4ccccn34)C2)n1 (stereo not drawn) [Compound 107, N4-cyclopropyl-6-(3-(imidazo[1,2-a]pyridin-3-yl)piperidin-1-yl)pyrimidine-2,4-diamine] |
| 0.5 to 5 µM | CNc1cc(N2CCCC(c3cnc4ccccn34)C2)nc(NC)n1 (racemic) [Compound 124, (R/S)-6-(3-(imidazo[1,2-a]pyridin-3-yl)piperidin-1-yl)-N2,N4-dimethylpyrimidine-2,4-diamine] |
| > 5 µM | CC(C)c1cc(N2CCCC(c3cnc4ccccn34)C2)ncn1 (racemic) [Compound 148, (R/S)-3-(1-(6-isopropylpyrimidin-4-yl)piperidin-3-yl)imidazo[1,2-a]pyridine] |
| < 0.5 µM | CN(C)CCCNC(=O)CN1CC=C(c2cc(O)c3ncccc3c2)CC1 [Compound 307, N-(3-(dimethylamino)propyl)-2-(4-(8-hydroxyquinolin-6-yl)-3,6-dihydropyridin-1(2H)-yl)acetamide] |
| 0.5 to 5 µM | Cn1nccc1-c1cc(N2CC3CC(C2)N3)nc2c(-c3cc[nH]n3)nccc12 [Compound 365, 3-(4-(1-methyl-1H-pyrazol-5-yl)-8-(1H-pyrazol-3-yl)-1,7-naphthyridin-2-yl)-3,6-diazabicyclo[3.1.1]heptane] |
| > 5 µM | CC(C)c1cc(Nc2cccc(CC3CCNC3=O)c2)nc(N)n1 (stereo not drawn) [Compound 197, 3-(3-((2-amino-6-isopropylpyrimidin-4-yl)amino)benzyl)pyrrolidin-2-one] |
| > 5 µM | Nc1cc(N2CCCC(c3cnc4ccccn34)C2)nc(N)n1 (single isomer, unassigned) [Compound 115, (S/R)-6-(3-(imidazo[1,2-a]pyridin-3-yl)piperidin-1-yl)pyrimidine-2,4-diamine] |
| > 5 µM | CN1CCN(c2cc(N)nc(N)n2)C[C@@H]1c1ccccc1Br (racemic) [Compound 144, (S/R)-6-(3-(2-bromophenyl)-4-methylpiperazin-1-yl)pyrimidine-2,4-diamine] |
| 0.5 to 5 µM | Nc1cc(N2CC[C@H](O)[C@@H](c3ccccc3Br)C2)nc(N)n1 (relative stereo) [Compound 222, (3,4-trans)-3-(2-bromophenyl)-1-(2,6-diaminopyrimidin-4-yl)piperidin-4-ol] |
